Test: Solubility in ultrapure water when preparing peptide solutions
Type: physicochemical

For `CC(=O)N[C@@H](CCCNC(=N)N)C(=O)N[C@@H](C)C(=O)N[C@@H](CC(=O)O)C(=O)N[C@@H](C)C(=O)N[C@@H](CCCNC(=N)N)C(=O)N[C@@H](C)C(=O)N[C@@H](CC(=O)O)C(=O)N[C@@H](C)C(=O)N[C@@H](CCCNC(=N)N)C(=O)N[C@@H](C)C(=O)N[C@@H](CC(=O)O)C(=O)N[C@@H](C)C(=O)N[C@@H](CCCNC(=N)N)C(=O)N[C@@H](C)C(=O)N[C@@H](CC(=O)O)C(=O)N[C@@H](C)C(N)=O` [(RADA)4], the solubility in water was “did not completely dissolve at a concentration of 2% by weight or higher”.

Reference: patent US20170119844A1, “HEMOSTATIC PHARMACEUTICAL COMPOSITION” (OTSUKA CHEMICAL CO., LTD., priority 2014, published 2017)
